Laboratory results as given in PMC3179267 (Biochemistry, 2011).
Where a SMILES comes first, the peptide text is derived from it. Bridges are numbered along the chain shown (N, C = ends).

Columns and labels:
trypsin [1] = assay: Protease susceptibility assay; assay type: in vitro ADME; conditions: 80 μM peptide, pH 8.2, room temperature, up to 60 min, analytical HPLC
trypsin [2] = conditions: cited from earlier work

SMILES	susceptibility to trypsin (trypsin [1])	susceptibility to trypsin, literature (trypsin [2])
CC[C@H](C)[C@H](NC(=O)[C@H](CCC(=O)O)NC(=O)[C@H](CS)NC(=O)[C@@H](NC(=O)CNC(=O)[C@H](CO)NC(=O)[C@H](CC(C)C)NC(=O)[C@H](CO)NC(=O)[C@H](CCC(=O)O)NC(=O)[C@H](CCCNC(=N)N)NC(=O)[C@@H](NC(=O)[C@H](C)NC(=O)[C@H](CS)NC(=O)[C@H](CCCNC(=N)N)NC(=O)CNC(=O)[C@@H](NC(=O)[C@H](CCCNC(=N)N)NC(=O)[C@H](CS)NC(=O)[C@H](Cc1ccc(O)cc1)NC(=O)[C@H](CS)NC(=O)[C@@H](NC(=O)[C@H](C)N)[C@@H](C)O)[C@@H](C)O)[C@@H](C)O)C(C)C)C(=O)N[C@@H](CO)C(=O)NCC(=O)N[C@@H](CCCNC(=N)N)C(=O)N[C@@H](CC(C)C)C(=O)N[C@@H](Cc1ccc(O)cc1)C(=O)N[C@@H](CCCNC(=N)N)C(=O)N[C@@H](CC(C)C)C(=O)N[C@@H](CS)C(=O)N[C@@H](CS)C(=O)N[C@@H](CCCNC(=N)N)C(=O)O [HD5red] (H-ATCYCRTGRCATRESLSGVCEISGRLYRLCCR-OH)	rapid proteolytic cleavage	–
CC[C@H](C)[C@@H]1NC(=O)[C@H](CCC(=O)O)NC(=O)[C@@H]2CSSC[C@@H]3NC(=O)[C@H](Cc4ccc(O)cc4)NC(=O)[C@@H](NC(=O)[C@@H](NC(=O)[C@H](C)N)[C@@H](C)O)CSSC[C@@H](C(=O)N[C@@H](CCCNC(=N)N)C(=O)O)NC(=O)[C@H](CSSC[C@H](NC(=O)[C@H](CCCNC(=N)N)NC(=O)CNC(=O)[C@H]([C@@H](C)O)NC(=O)[C@H](CCCNC(=N)N)NC3=O)C(=O)N[C@@H](C)C(=O)N[C@@H]([C@@H](C)O)C(=O)N[C@@H](CCCNC(=N)N)C(=O)N[C@@H](CCC(=O)O)C(=O)N[C@@H](CO)C(=O)N[C@@H](CC(C)C)C(=O)N[C@@H](CO)C(=O)NCC(=O)N[C@@H](C(C)C)C(=O)N2)NC(=O)[C@H](CC(C)C)NC(=O)[C@H](CCCNC(=N)N)NC(=O)[C@H](Cc2ccc(O)cc2)NC(=O)[C@H](CC(C)C)NC(=O)[C@H](CCCNC(=N)N)NC(=O)CNC(=O)[C@H](CO)NC1=O [HD5ox] (H-ATCYCRTGRCATRESLSGVCEISGRLYRLCCR-OH; disulfide 3-31, 5-20, 10-30)	not accepted as a substrate	very poor substrate
